From ChEMBL document CHEMBL1770068, “Pharmacophore-based virtual screening and Bayesian model for the identification of potential human leukotriene A4 hydrolase inhibitors” (Eur J Med Chem, 2011)

Each molecule was assayed against T1, Leukotriene A-4 hydrolase (Homo sapiens, UniProt P09960).
T1 sequence (P09960 whole entry): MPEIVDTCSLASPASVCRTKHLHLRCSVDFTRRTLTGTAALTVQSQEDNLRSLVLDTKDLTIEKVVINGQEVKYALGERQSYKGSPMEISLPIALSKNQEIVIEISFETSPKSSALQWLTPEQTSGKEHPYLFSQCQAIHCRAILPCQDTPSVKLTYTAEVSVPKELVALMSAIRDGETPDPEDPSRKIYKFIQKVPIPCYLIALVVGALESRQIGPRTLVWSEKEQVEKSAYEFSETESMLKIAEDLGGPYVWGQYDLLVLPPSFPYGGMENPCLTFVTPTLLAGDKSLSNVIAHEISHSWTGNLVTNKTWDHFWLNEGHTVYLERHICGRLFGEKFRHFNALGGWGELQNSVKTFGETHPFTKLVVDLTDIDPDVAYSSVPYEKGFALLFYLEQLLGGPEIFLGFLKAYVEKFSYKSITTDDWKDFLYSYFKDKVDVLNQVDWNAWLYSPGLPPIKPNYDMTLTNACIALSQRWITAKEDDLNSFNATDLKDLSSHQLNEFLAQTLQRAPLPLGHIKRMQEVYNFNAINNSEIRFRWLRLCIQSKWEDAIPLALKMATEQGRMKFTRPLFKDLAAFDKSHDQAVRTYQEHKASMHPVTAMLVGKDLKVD

Question: Which IC50 does the source give for `O=C(CC(Cc1ccccc1)C(=O)N1CCCCC1C(=O)O)NO` (stereo not given) here?
Answer: 1800 nM

Question: How did the IC50 turn out when `CN(CCCOc1ccc(Oc2ccc(-c3ccccc3)cc2)cc1)CCC(=O)O` was run?
Answer: 0.5 nM

Question: How did the IC50 turn out when `O=C(O)c1ccc(CN2CC3CCCC2C(Nc2ccc(Oc4ccc(-c5ccccc5)cc4)cc2)C3)cc1` (stereo not given) was run?
Answer: 5 nM

Question: For `CC(NC(=O)C(CC(=O)O)Cc1ccccc1)C(=O)O` (stereo not given), which IC50 is on record?
Answer: 300 nM

Question: With `O=C(O)c1ccc(CN2CC3CCCC2C(Nc2ccc(Oc4nc5ccccc5s4)cc2)C3)cc1` (stereo not given) as the molecule, how does the IC50 read?
Answer: 9 nM
